Read-outs that look alike come from different tables or passages of the source. Each block holds one compound with its values, some of them ahead of it.
Assays:
human TLR8 = molecular target: T1, human TLR8 (Homo sapiens, UniProt Q9NR97); test: HEK293 NFKB reporter assay, human TLR8; type: cell-based
T1 construct: host or cells: HEK293 reporter cells
T1 sequence (Q9NR97 27-1041): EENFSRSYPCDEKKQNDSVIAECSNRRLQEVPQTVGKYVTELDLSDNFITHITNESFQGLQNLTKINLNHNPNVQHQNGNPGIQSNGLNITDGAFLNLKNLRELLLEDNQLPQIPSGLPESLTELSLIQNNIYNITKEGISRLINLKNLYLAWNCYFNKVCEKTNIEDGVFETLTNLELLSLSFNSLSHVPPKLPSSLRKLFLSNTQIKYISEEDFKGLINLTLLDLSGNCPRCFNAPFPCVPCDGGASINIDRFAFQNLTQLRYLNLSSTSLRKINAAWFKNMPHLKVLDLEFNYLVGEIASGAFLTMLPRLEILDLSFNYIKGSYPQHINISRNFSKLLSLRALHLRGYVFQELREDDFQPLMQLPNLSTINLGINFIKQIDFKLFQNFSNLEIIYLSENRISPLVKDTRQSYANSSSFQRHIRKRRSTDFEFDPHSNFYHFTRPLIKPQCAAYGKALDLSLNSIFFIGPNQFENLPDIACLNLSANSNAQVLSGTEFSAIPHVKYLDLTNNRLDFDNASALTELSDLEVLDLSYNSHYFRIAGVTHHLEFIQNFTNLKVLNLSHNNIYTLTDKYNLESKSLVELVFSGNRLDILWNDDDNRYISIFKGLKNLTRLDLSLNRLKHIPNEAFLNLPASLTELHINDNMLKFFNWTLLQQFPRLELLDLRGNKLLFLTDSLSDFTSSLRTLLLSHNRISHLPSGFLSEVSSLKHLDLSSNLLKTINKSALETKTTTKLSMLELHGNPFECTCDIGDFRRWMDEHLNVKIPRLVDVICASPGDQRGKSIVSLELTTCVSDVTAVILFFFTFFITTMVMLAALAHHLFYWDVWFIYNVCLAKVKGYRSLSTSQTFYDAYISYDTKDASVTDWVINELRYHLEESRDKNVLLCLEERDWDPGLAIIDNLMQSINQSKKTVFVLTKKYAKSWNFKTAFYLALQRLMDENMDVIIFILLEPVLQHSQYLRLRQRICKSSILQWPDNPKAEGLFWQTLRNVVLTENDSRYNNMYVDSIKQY
Protocol: (§1) Each compound was synthesized and purified by the methods in the Examples provided herein, characterized by mass spectrometry, and shown to have the mass indicated. Activity against HEK293 NFKB reporter cells expressing human TLR7 or human TLR8 was measured according to Example 68.
(§2) HEK293 reporter cells expressing human TLR7 or human TLR8 were purchased from Invivogen and vendor protocols were followed for cellular propagation and experimentation. Briefly, cells were grown to 80-85% confluence at 5% CO2 in DMEM supplemented with 10% FBS, Zeocin, and Blasticidin. Cells were then seeded in 96-well flat plates at 4×10^4cells/well with substrate containing HEK detection medium and immunostimulatory molecules. Activity was measured using a plate reader at 620-655 nm wavelength.

human TLR7 = molecular target: T2, human TLR7 (Homo sapiens, UniProt Q9NYK1); test: HEK293 NFKB reporter assay, human TLR7; type: cell-based
T2 construct: host or cells: HEK293 reporter cells
T2 sequence (Q9NYK1 27-1049): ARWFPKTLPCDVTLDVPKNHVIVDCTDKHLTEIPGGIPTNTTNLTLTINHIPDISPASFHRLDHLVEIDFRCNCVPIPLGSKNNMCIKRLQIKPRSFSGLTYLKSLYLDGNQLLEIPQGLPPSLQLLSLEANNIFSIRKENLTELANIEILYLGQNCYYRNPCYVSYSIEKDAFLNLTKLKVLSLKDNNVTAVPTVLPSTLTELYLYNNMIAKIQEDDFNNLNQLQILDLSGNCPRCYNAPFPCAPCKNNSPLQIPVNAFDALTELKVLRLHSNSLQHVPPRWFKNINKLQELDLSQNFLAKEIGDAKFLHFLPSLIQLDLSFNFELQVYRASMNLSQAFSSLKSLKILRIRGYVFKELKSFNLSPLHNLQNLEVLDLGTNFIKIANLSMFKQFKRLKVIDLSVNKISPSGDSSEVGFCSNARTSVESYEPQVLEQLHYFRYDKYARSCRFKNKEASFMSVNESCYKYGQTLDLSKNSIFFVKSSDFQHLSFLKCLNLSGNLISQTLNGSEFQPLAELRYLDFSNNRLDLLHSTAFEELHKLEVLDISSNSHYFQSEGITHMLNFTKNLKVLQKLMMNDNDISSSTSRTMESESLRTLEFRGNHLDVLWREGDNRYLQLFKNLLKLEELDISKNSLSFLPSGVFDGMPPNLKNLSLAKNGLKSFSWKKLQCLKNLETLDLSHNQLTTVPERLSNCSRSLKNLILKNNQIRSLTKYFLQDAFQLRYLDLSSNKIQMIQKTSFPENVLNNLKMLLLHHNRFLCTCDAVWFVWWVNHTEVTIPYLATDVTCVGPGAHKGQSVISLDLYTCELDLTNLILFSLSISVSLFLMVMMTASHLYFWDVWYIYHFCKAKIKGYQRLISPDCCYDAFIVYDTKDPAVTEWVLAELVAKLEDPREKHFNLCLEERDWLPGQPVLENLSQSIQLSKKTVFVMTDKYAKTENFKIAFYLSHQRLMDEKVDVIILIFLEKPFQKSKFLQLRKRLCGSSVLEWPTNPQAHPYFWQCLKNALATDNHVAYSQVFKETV
Protocol: as §1, §2

[1] = Table 1b, HEK293 reporter cells expressing human TLR8, read-out: HEK293 hTLR8 EC50
[2] = Table 1b, HEK293 reporter cells expressing human TLR7, read-out: HEK293 hTLR7 EC50
[3] = Table 1a, HEK293 reporter cells expressing human TLR8, read-out: HEK293 hTLR8 EC50
[4] = Table 1a, HEK293 reporter cells expressing human TLR7, read-out: HEK293 hTLR7 EC50
[5] = Table 1c, HEK293 reporter cells expressing human TLR8, read-out: HEK293 hTLR8 EC50
[6] = Table 1c, HEK293 reporter cells expressing human TLR7, read-out: HEK293 hTLR7 EC50

EC50 (human TLR8; [1]): 1400 nM
EC50 (human TLR7; [2]): > 9000 nM
SMILES: CCCN(CCc1ccc(OC)cc1)C(=O)C1=Cc2ccc(-c3cccc(S(=O)(=O)N4CC(CO)C4)c3)cc2N=C(N)C1 [Bz-25, 2-amino-8-[3-[3-(hydroxymethyl)azetidin-1-yl]sulfonylphenyl]-N-[2-(4-methoxyphenyl)ethyl]-N-propyl-3H-1-benzazepine-4-carboxamide]

EC50 (human TLR8; [3]): 4.28 nM
EC50 (human TLR7; [4]): > 9000 nM
SMILES: CCCN(CCC)C(=O)C1=Cc2ccc(C(=O)Nc3cncc(CNC(=O)OC(C)(C)C)c3)cc2N=C(N)C1 [Bz-7]

EC50 (human TLR8; [5]): 246 nM
SMILES: CCCN(CCC(F)(F)F)C(=O)C1=Cc2ccc(C(=O)Nc3ccccc3)cc2N=C(N)C1 [Bz-75]

EC50 (human TLR8; [3]): 1050 nM
EC50 (human TLR7; [4]): > 9000 nM
SMILES: CCCN(CCCNC(=O)OC(C)(C)C)C(=O)C1=Cc2ccc(C(=O)Nc3ccc(N4CCC(C(=O)NCCNC(C)=O)CC4)nc3)cc2N=C(N)C1 [Bz-16, tert-butyl (3-(8-((6-(4-((2-acetamidoethyl)carbamoyl)piperidin-1-yl)pyridin-3-yl)carbamoyl)-2-amino-N-propyl-3H-benzo[b]azepine-4-carboxamido)propyl)carbamate]

EC50 (human TLR8; [1]): 32 nM
EC50 (human TLR7; [2]): > 9000 nM
SMILES: CCCN(OCC)C(=O)C1=Cc2ccc(-c3cccc(S(=O)(=O)N4CC(CO)C4)c3)cc2N=C(N)C1 [Bz-29, 2-amino-N-ethoxy-8-[3-[3-(hydroxylmethyl)azetidin-1-yl]sulfonylphenyl]-N-propyl-3H-1-benzazepine-4-carboxamide]

EC50 (human TLR8; [5]): 1040 nM
EC50 (human TLR7; [6]): ≥ 9000 nM
SMILES: CCCN(CCCNC(=O)c1ccc(OCC)cc1)C(=O)C1=Cc2ccc(C(=O)Nc3ccccc3)cc2N=C(N)C1 [Bz-55]

EC50 (human TLR8; [1]): 1160 nM
EC50 (human TLR7; [2]): 2430 nM
SMILES: CCCN(CCCNc1ncccn1)C(=O)C1=Cc2ccc(-c3cccc(S(=O)(=O)N4CC(CO)C4)c3)cc2N=C(N)C1 [Bz-23, 2-amino-8-[3-[3-(hydroxymethyl)azetidin-1-yl]sulfonylphenyl]-N-propyl-N-[3-(pyrimidin-2-ylamino)propyl]-3H-1-benzazepine-4-carboxamide]

EC50 (human TLR8; [3]): 4310 nM
EC50 (human TLR7; [4]): 545 nM
SMILES: CCCN(CCCN(C)C(=O)OC(C)(C)C)C(=O)C1=Cc2ccc(-c3cccc(S(=O)(=O)N4CC(CO)C4)c3)cc2N=C(N)C1 [Bz-3, tert-butyl (3-(2-amino-8-(3-((3-(hydroxymethyl)azetidin-1-yl)sulfonyl)phenyl)-N-propyl-3H-benzo[b]azepine-4-carboxamido)propyl)(methyl)carbamate]

EC50 (human TLR8; [3]): 1700 nM
EC50 (human TLR7; [4]): > 9000 nM
SMILES: CCCN(CCC)C(=O)C1=Cc2c(CCCCN)cc(-c3cccc(S(=O)(=O)N4CC(CO)C4)c3)cc2N=C(N)C1 [Bz-14, 2-Amino-6-(4-aminobutyl)-8-(3-((3-(hydroxymethyl)azetidin-1-yl)sulfonyl)phenyl)-N,N-dipropyl-3H-benzo[b]azepine-4-carboxamide]

EC50 (human TLR8; [5]): 870 nM
SMILES: CCCN(Cc1ccc(CN)cc1)C(=O)C1=Cc2ccccc2N=C(N)C1 [Bz-59]

EC50 (human TLR8; [5]): 288 nM
SMILES: CCCN(CCOC)C(=O)C1=Cc2ccc(-c3cccc(S(=O)(=O)N4CC(CO)C4)c3)cc2N=C(N)C1 [Bz-60]

EC50 (human TLR8; [5]): 741 nM
SMILES: CCCN(CCC)C(=O)C1=Cc2ccc(-c3cccc(S(=O)(=O)N4CCC5(CCNC5)C4)c3)cc2N=C(N)C1 (stereo not drawn) [Bz-57]

EC50 (human TLR8; [5]): 249 nM
SMILES: CCCN(CCC)C(=O)C1=Cc2ccc(-c3cccc(S(=O)(=O)N4CC5(CCNC5)C4)c3)cc2N=C(N)C1 [Bz-53]

EC50 (human TLR8; [5]): 4250 nM
SMILES: CCCNN(CC)C(=O)C1=Cc2ccc(-c3cccc(S(=O)(=O)N4CC(CO)C4)c3)cc2N=C(N)C1 [Bz-72]

Continued, compound first:

SMILES: CCCN(OCC)C(=O)C1=Cc2ccc(-c3cccc(S(=O)(=O)N4CC(CO)C4)c3)cc2N=C(N)C1 [Bz-42]
EC50 (human TLR8; [5]): 49 nM
EC50 (human TLR7; [6]): ≥ 9000 nM

SMILES: CCCN(CCC)C(=O)C1=Cc2ccc(-c3cccc(S(=O)(=O)N4[C@@H]5CNC[C@@H]54)c3)cc2N=C(N)C1 (stereo partly drawn) [Bz-56]
EC50 (human TLR8; [5]): 111 nM

SMILES: CCCN(CCCNC(=O)Nc1cccc(C#N)c1)C(=O)C1=Cc2ccc(-c3cccc(S(=O)(=O)N4CC(CO)C4)c3)cc2N=C(N)C1 [Bz-12, 2-amino-N-[3-[(3-cyanophenyl)carbamoylamino]propyl]-8-[3-[3-(hydroxymethyl)azetidin-1-yl]sulfonylphenyl]-N-propyl-3H-1-benzazepine-4-carboxamide]
EC50 (human TLR8; [3]): 2380 nM
EC50 (human TLR7; [4]): 2490 nM

SMILES: CCCN(CCc1ccc(OC)cc1)C(=O)C1=Cc2ccc(-c3cccc(S(=O)(=O)N4CC(CN(C)C)C4)c3)cc2N=C(N)C1 [Bz-76]
EC50 (human TLR8; [5]): 786 nM
EC50 (human TLR7; [6]): 969 nM

SMILES: CCCN(CCCNC(=O)OCC)C(=O)C1=Cc2ccc(-c3cccc(S(=O)(=O)N4CC(CO)C4)c3)cc2N=C(N)C1 [Bz-13, ethyl N-[3-[[2-amino-8-[3-[3-(hydroxymethyl)azetidin-1-yl]sulfonylphenyl]-3H-1-benzazepine-4-carbonyl]-propyl-amino]propyl]carbamate]
EC50 (human TLR8): 134 nM
EC50 (human TLR7): 1370 nM

SMILES: CCCN(CCC)C(=O)C1=Cc2ccc(-c3cccc(S(=O)(=O)N4CCC(N)CC4)c3)cc2N=C(N)C1 [Bz-54]
EC50 (human TLR8; [5]): 198 nM

SMILES: CCCN(NCC)C(=O)C1=Cc2ccc(-c3cccc(S(=O)(=O)N4CC(CO)C4)c3)cc2N=C(N)C1 [Bz-71]
EC50 (human TLR8; [5]): 2750 nM

SMILES: CCCN(Cc1ccc(CN2CCN(C(=O)OC(C)(C)C)CC2)cc1)C(=O)C1=Cc2ccc(-c3cccc(S(=O)(=O)N4CC(CO)C4)c3)cc2N=C(N)C1 [Bz-30, tert-butyl 4-[[4-[[[2-amino-8-[3-[3-(hydroxymethyl)azetidin-1-yl]sulfonylphenyl]-3H-1-benzazepine-4-carbonyl]-propyl-amino]methyl]phenyl]methyl]piperazine-1-carboxylate]
EC50 (human TLR7; [2]): > 9000 nM

SMILES: CCCN(CCC)C(=O)C1=Cc2ccc(-c3c(C)nn(S(=O)(=O)N4CC(CO)C4)c3C)cc2N=C(N)C1 [Bz-48]
EC50 (human TLR8; [5]): 499 nM

SMILES: CCCN(CCC)C(=O)C1=Cc2ccc(-c3cccc(S(=O)(=O)N4CC5(CNC5)C4)c3)cc2N=C(N)C1 [Bz-52]
EC50 (human TLR8; [5]): 1320 nM

SMILES: CCCN(CCC)C(=O)C1=Cc2ccc(CCCCCN)cc2N=C(N)C1 [Bz-74]
EC50 (human TLR8; [5]): 2560 nM

SMILES: CCCN(Cc1ccc(CN2CCN(C(=O)OC(C)(C)C)CC2)cc1)C(=O)C1=Cc2ccc(-c3cccc(S(=O)(=O)N4CC(CO)C4)c3)cc2N=C(N)C1 [Bz-44]
EC50 (human TLR7; [6]): ≥ 9000 nM

SMILES: CCCN(CCC)C(=O)C1=Cc2ccc(-c3c(C)n[nH]c3C)cc2N=C(N)C1 [Bz-45]
EC50 (human TLR8; [5]): 345 nM
